Patent US9783509B2, “Six-membered C-N-linked aryl sulfide derivatives and aryl sulfoxide derivatives as pest conrol agents” (BAYER CROPSCIENCE AKTIENGESELLSCHAFT, priority 2013, dated 2017)
Like-named read-outs stand apart in the source and are kept apart here.

Assays:
[1] = log P by reversed-phase HPLC analogously to OECD Guideline 117; assay type: physicochemical
Description: The log P values were determined analogously to OECD Guideline 117 (EC Directive 92/69/EEC) by HPLC (high-performance liquid chromatography) using reversed-phase columns (C 18), by the following methods:
[a] LC-MS determination in the acidic range is effected at pH 2.7 with 0.1% aqueous formic acid and acetonitrile (containing 0.1% formic acid) as eluents with a linear gradient from 10% acetonitrile to 95% acetonitrile; or with 0.025% aqueous trifluoroacetic acid and acetonitrile (containing 0.025% trifluoroacetic acid) as eluents with a linear gradient from 50% acetonitrile to 80% acetonitrile.
[b] LC-MS determination in the neutral range is effected at pH 7.8 with 0.001 molar aqueous ammonium hydrogencarbonate solution and acetonitrile as eluents; linear gradient from 10% acetonitrile to 95% acetonitrile.
Calibration is effected with solutions of a homologous series of unbranched alkan-2-ones (having 3 to 16 carbon atoms) with known log P values (log P values determined on the basis of the retention times by linear interpolation between two successive alkanones).

[2] = tested on: greenhouse red spider mite (Tetranychus urticae); assay: Tetranychus urticae spray test, OP-resistant (bean leaf discs); assay type: in vivo; settings: after 6 days; for pest or weed control at 500 g/ha: Tetranychus urticae, foliar, 144 h, read-out: efficacy (spider mites killed)
Description: Tetranychus urticae—Spray Test, OP-Resistant
Solvent: 78.0 parts by weight of acetone • • 1.5 parts by weight of dimethylformamide
Emulsifier: alkylaryl polyglycol ether
To produce an appropriate active ingredient formulation, 1 part by weight of active ingredient is dissolved using the specified parts by weight of solvent and made up with water containing an emulsifier concentration of 1000 ppm until the desired concentration is attained. To produce further test concentrations, the preparation is diluted with emulsifier-containing water.
Discs of bean leaves (Phaseolus vulgaris) infested by all stages of the greenhouse red spider mite (Tetranychus urticae) are sprayed with an active ingredient formulation of the desired concentration.
After 6 days, the efficacy in % is determined. 100% means that all the spider mites have been killed; 0% means that none of the spider mites have been killed.

[3] = [a] acidic range, pH 2.7, formic acid (or trifluoroacetic acid)/acetonitrile
[4] = [b] neutral range, pH 7.8, ammonium hydrogencarbonate/acetonitrile
[5] = reversed-phase C18 HPLC column, pH 2.7, table column, [a] acidic range, pH 2.7, formic acid (or trifluoroacetic acid)/acetonitrile, read-out: LogP[a]
[6] = reversed-phase C18 HPLC column, pH 7.8, table column, [b] neutral range, pH 7.8, ammonium hydrogencarbonate/acetonitrile, read-out: LogP[b]
[7] = reversed-phase C18 HPLC column, pH 2.7, running text, [a] acidic range, pH 2.7, read-out: log P[a]
[8] = reversed-phase C18 HPLC column, pH 7.8, running text, [b] neutral range, pH 7.8, read-out: log P[b]
[9] = reversed-phase C18 HPLC column, pH 2.7, running text, HCOOH, read-out: log P(HCOOH)

Molecule: 1-{2,4-Diethyl-5-[(2,2,2-trifluoroethyl)sulphinyl]phenyl}-6-methyl-2,4-dioxo-1,2,3,4-tetrahydropyrimidine-5-carbonitrile
- log P[a] ([1]; pH 2.7): 3.16

Molecule: Cn1c(=O)cnn(-c2cc([S+]([O-])CC(F)(F)F)c(Cl)cc2Cl)c1=O (racemic) [compound 13]
- efficacy (spider mites killed) ([2]; application rate 500 g/ha): 90%
- LogP[a] [1, 3]: 2.48

Molecule: Cc1ccc(-n2ncc(=O)n(C)c2=O)cc1[S+]([O-])CC(F)(F)F (racemic) [compound 24]
- efficacy (spider mites killed) ([2]; application rate 500 g/ha): 100%
- LogP[a] [1, 3]: 1.84
- LogP[b] [1, 4]: 1.83

Molecule: CCn1c(=O)cnn(-c2cc([S+]([O-])CC(F)(F)F)c(C)cc2C)c1=O (racemic) [compound 35]
- efficacy (spider mites killed) ([2]; application rate 500 g/ha): 100%
- LogP[a] [1, 3]: 2.31
- LogP[b] [1, 4]: 2.27

Molecule: Cc1cc(C)c([S+]([O-])CC(F)(F)F)cc1-n1ncc(=O)n(CC2CC2)c1=O (racemic) [compound 37]
- efficacy (spider mites killed) ([2]; application rate 500 g/ha): 100%
- LogP[a] [1, 3]: 2.77
- LogP[b] [1, 4]: 2.73

Molecule: Cc1cc(C)c([S+]([O-])CC(F)(F)F)cc1-n1ncc(=O)n(C(C)C)c1=O (racemic) [compound 38]
- efficacy (spider mites killed) ([2]; application rate 500 g/ha): 100%
- LogP[a] [1, 3]: 2.69
- LogP[b] [1, 4]: 2.67

Molecule: Cc1cc(C)c([S+]([O-])CC(F)(F)F)cc1-n1ncc(=O)n(Cc2ccccc2)c1=O (racemic) [compound 52]
- efficacy (spider mites killed) ([2]; application rate 100 g/ha): 90%
- LogP[a] [1, 3]: 3.06
- LogP[b] [1, 4]: 3.00

Molecule: Cc1cc(C)c([S+]([O-])CC(F)(F)F)cc1-n1ncc(=O)n(CC(F)(F)F)c1=O (single isomer, unassigned) [compound 46]
- LogP[a] [1, 3]: 2.72
- LogP[b] [1, 4]: 2.66

Molecule: Cc1cc(F)c(-n2ncc(=O)n(CC(F)(F)F)c2=O)cc1[S+]([O-])CC(F)(F)F (single isomer, unassigned) [compound 51]
- LogP[a] [1, 3]: 2.62
- LogP[b] [1, 4]: 2.57

Molecule: Cc1cc(F)c(-n2ncc(=O)n(C)c2=O)cc1[S+]([O-])CC(F)(F)F (single isomer, unassigned; (-)) [Ex. No. 28, (−)-2-[2-fluoro-4-methyl-5-(2,2,2-trifluoroethylsulphinyl)phenyl]-4-methyl-1,2,4-triazine-3,5-dione]
- chromatographic logP [1, 5]: 1.95
- chromatographic logP [1, 6]: 1.9

Molecule: Cc1cc(F)c(-n2ncc(=O)[nH]c2=O)cc1SCC(F)(F)F [2-{2-Fluoro-4-methyl-5-[(2,2,2-trifluoroethyl)sulphanyl]phenyl}-1,2,4-triazine-3,5(2H,4H)-dione]
- chromatographic logP [1, 7]: 2.45

Molecule: Cc1cc(F)c(-n2nc(C(=O)O)c(=O)[nH]c2=O)cc1SCC(F)(F)F [2-{2-Fluoro-4-methyl-5-[(2,2,2-trifluoroethyl)sulphanyl]phenyl}-3,5-dioxo-2,3,4,5-tetrahydro-1,2,4-triazine-6-carboxylic acid]
- chromatographic logP [1, 7]: 1.79

Molecule: CCO/C=C/C(=O)NC(=O)Nc1cc(SCC(F)(F)F)c(C)cc1F [(2E)-3-Ethoxy-N-({2-fluoro-4-methyl-5-[(2,2,2-trifluoroethyl)sulphanyl]phenyl}carbamoyl)-acrylamide]
- chromatographic logP [1, 7]: 3.78
- chromatographic logP [1, 8]: 3.7

Molecule: CCOC(=O)c1cn(-c2cc(SCC(F)(F)F)c(C)cc2F)c(=O)n(C2CC2)c1=O [Ethyl 3-cyclopropyl-1-{2-fluoro-4-methyl-5-[(2,2,2-trifluoroethyl)sulphanyl]phenyl}-2,4-dioxo-1,2,3,4-tetrahydropyrimidine-5-carboxylate]
- chromatographic logP [1, 7]: 3.07
- chromatographic logP [1, 8]: 3.02

Molecule: CCOC(=O)NC(=O)c1nn(-c2cc(SCC(F)(F)F)c(C)cc2F)c(=O)[nH]c1=O [Ethyl [(2-{2-fluoro-4-methyl-5-[(2,2,2-trifluoroethyl)sulphanyl]phenyl}-3,5-dioxo-2,3,4,5-tetrahydro-1,2,4-triazin-6-yl)carbonyl]arbamate]
- chromatographic logP ([1]; [a] acidic range, pH 2.7, read-out: log P[a]): 2.5

Molecule: Cc1cc(F)c(-n2ncc(=O)[nH]c2=O)cc1[S+]([O-])CC(F)(F)F (stereo not drawn) [Ex. No. 1, 2-{2-Fluoro-4-methyl-5-[(2,2,2-trifluoroethyl)sulphinyl]phenyl}-1,2,4-triazine-3,5(2H,4H)-dione]
- chromatographic logP [1, 7]: 1.58
- chromatographic logP [1, 5]: 1.58

Molecule: Cc1cc(C)c(-n2ncc(=O)n(C)c2=O)cc1SCC(F)(F)F [Ex. No. 5]
- efficacy (spider mites killed) ([2]; application rate 500 g/ha): 100%
- LogP[a] [1, 3]: 3.08

Molecule: Cc1cc(C)c(-n2ncc(=O)n(CC(F)(F)F)c2=O)cc1SCC(F)(F)F [Ex. No. 7]
- efficacy (spider mites killed) ([2]; application rate 500 g/ha): 90%
- LogP[a] [1, 3]: 3.74

Molecule: Cc1cc(F)c(-n2c(C)c(C#N)c(=O)[nH]c2=O)cc1[S+]([O-])CC(F)(F)F (stereo not drawn) [Ex. No. 16, 1-{2-Fluoro-4-methyl-5-[(2,2,2-trifluoroethyl)sulphinyl]phenyl}-6-methyl-2,4-dioxo-1,2,3,4-tetrahydropyrimidine-5-carbonitrile]
- pest or weed control at 500 g/ha ([2]; application rate 500 g/ha): 90%
- chromatographic logP [1, 5]: 1.58
- chromatographic logP [1, 6]: 0.88

Molecule: Cc1cc(F)c(-n2c(C)c(C#N)c(=O)[nH]c2=O)cc1SCC(F)(F)F [Ex. No. 17, 1-{2-Fluoro-4-methyl-5-[(2,2,2-trifluoroethyl)sulphanyl]phenyl}-6-methyl-2,4-dioxo-1,2,3,4-tetrahydropyrimidine-5-carbonitrile]
- pest or weed control at 500 g/ha ([2]; application rate 500 g/ha): 90%
- chromatographic logP [1, 7]: 2.43
- chromatographic logP [1, 5]: 2.43

Molecule: CCc1cc(CC)c([S+]([O-])CC(F)(F)F)cc1-n1c(C)c(C#N)c(=O)[nH]c1=O (stereo not drawn) [Ex. No. 18, 1-{2,4-Diethyl-5-[(2,2,2-trifluoroethyl)sulphinyl]phenyl}-6-methyl-2,4-dioxo-1,2,3,4-tetrahydropyrimidine-5-carbonitrile]
- pest or weed control at 500 g/ha ([2]; application rate 500 g/ha): 90%
- chromatographic logP [1, 7]: 2.15
- chromatographic logP [1, 5]: 2.15
- chromatographic logP [1, 8]: 1.55
- chromatographic logP [1, 6]: 1.55

Molecule: Cc1cc(F)c(-n2ccc(=O)[nH]c2=O)cc1SCC(F)(F)F [Ex. No. 55, 1-{2-Fluoro-4-methyl-5-[(2,2,2-trifluoroethyl)sulphanyl]phenyl}pyrimidine-2,4(1H,3H)-dione]
- pest or weed control at 500 g/ha ([2]; application rate 500 g/ha): 100%
- chromatographic logP [1, 7]: 2.13
- chromatographic logP [1, 5]: 2.06
- chromatographic logP [1, 8]: 2.06
- chromatographic logP [1, 6]: 2.13

Molecule: CCc1cc(CC)c(SSc2cc(NC(C)=O)c(CC)cc2CC)cc1NC(C)=O [N,N′-[Disulphanediylbis(4,6-diethylbenzene-3,1-diyl)]diacetamide]
- chromatographic logP [1, 9]: 4.02

Molecule: CCc1cc(CC)c(SCC(F)(F)F)cc1NC(C)=O [N-{2,4-Diethyl-5-[(2,2,2-trifluoroethyl)sulphanyl]phenyl}acetamide]
- chromatographic logP [1, 9]: 3.07

Molecule: Cc1ccc(-n2ncc(=O)n(C)c2=O)cc1SCC(F)(F)F [compound 23]
- efficacy (spider mites killed) ([2]; application rate 500 g/ha): 100%
- LogP[a] [1, 3]: 2.9
- LogP[b] [1, 4]: 2.83

Molecule: Cc1cc(F)c(-n2ncc(=O)n(C(C)C)c2=O)cc1SCC(F)(F)F [compound 26]
- efficacy (spider mites killed) ([2]; application rate 500 g/ha): 100%
- LogP[a] [1, 3]: 3.73
- LogP[b] [1, 4]: 3.67

Molecule: CCn1c(=O)cnn(-c2cc(SCC(F)(F)F)c(C)cc2C)c1=O [compound 33]
- efficacy (spider mites killed) ([2]; application rate 500 g/ha): 100%
- LogP[a] [1, 3]: 3.45
- LogP[b] [1, 4]: 3.38

Molecule: Cc1cc(C)c(-n2ncc(=O)n(CC3CC3)c2=O)cc1SCC(F)(F)F [compound 34]
- efficacy (spider mites killed) ([2]; application rate 500 g/ha): 100%
- LogP[a] [1, 3]: 3.94
- LogP[b] [1, 4]: 3.87

Molecule: Cc1cc(C)c(-n2ncc(=O)n(C(C)C)c2=O)cc1SCC(F)(F)F [compound 36]
- efficacy (spider mites killed) ([2]; application rate 500 g/ha): 100%
- LogP[a] [1, 3]: 3.88
- LogP[b] [1, 4]: 3.81

Molecule: Cc1cc(C)c(-n2ncc(=O)n(CC#N)c2=O)cc1SCC(F)(F)F [compound 40]
- efficacy (spider mites killed) ([2]; application rate 500 g/ha): 100%
- LogP[a] [1, 3]: 3.1
- LogP[b] [1, 4]: 3.05

Molecule: Cc1cc(C)c(-n2ncc(=O)n(CC(C)C)c2=O)cc1SCC(F)(F)F [compound 41]
- efficacy (spider mites killed) ([2]; application rate 500 g/ha): 90%
- LogP[a] [1, 3]: 4.18
- LogP[b] [1, 4]: 4.1

Molecule: Cc1cc(F)c(-n2ncc(=O)n(Cc3ccccc3)c2=O)cc1SCC(F)(F)F [compound 42]
- efficacy (spider mites killed) ([2]; application rate 500 g/ha): 100%
- LogP[a] [1, 3]: 4.04
- LogP[b] [1, 4]: 3.93

Molecule: CCCn1c(=O)ccn(-c2cc([S+]([O-])CC(F)(F)F)c(C)cc2F)c1=O (stereo not drawn) [compound 66]
- efficacy (spider mites killed) ([2]; application rate 500 g/ha): 90%
- LogP[a] [1, 3]: 2.17
- LogP[b] [1, 4]: 2.25

Molecule: CCn1c(=O)ccn(-c2ccc(C)c(SCC(F)(F)F)c2)c1=O [compound 83]
- LogP[a] [1, 3]: 2.74
- LogP[b] [1, 4]: 2.81
